Data on 4 compounds can be found in US9878977B2, “N-((3,4,5-trimethoxystyryl)aryl)cinnamamide compounds as potential anticancer agents and process for the preparation thereof” (COUNCIL OF SCIENTIFIC & INDUSTRIAL RESEARCH, priority 2014, dated 2018).

One may read the GI50 as the concentration at which growth is held to half of that of the control.

In assay [1] the test system is tubulin. The note with it: reported in J. Med. Chem. 2008, 51, 6211; cited from earlier work.
Assay [2] deals with DU-145. Nature of the assay: SRB anti-proliferative assay, DU-145. In kind it is cell-based, Human. Here is the method: (§1) The synthesized N-(3,4,5-trimethoxystyryl)aryl)cinnamamides were evaluated for their anti-proliferative activity in selected human cancer cell lines of breast cancer (MCF-7), prostate cancer (DU-145), lung cancer (Hop-62), cervical cancer (Hela), leukemia (K562), ovarian cancer (SK-OV-3), colon cancer (Colo-205), pancreatic (MAIPA-CA-2) by using sulforhodamine B (SRB) method (Vichai, V.; Kirtikara, K. Nat. Protoc. 2006, 1, 1112). […] CA-4 was used as the reference compound.

Assay [3] relates to K562. Particulars: Human leukemia; data from NCI60 dose response (NSC 613729); cited from earlier work.
Assay [4] deals with SK-OV-3. Particulars: Human ovarian cancer; data from NCI60 dose response (NSC 613729); cited from earlier work.
Assay [5] deals with Hop-62. The note with it: Human lung cancer; data from NCI60 dose response (NSC 613729); cited from earlier work.
Assay [6] has as its system MCF-7. Nature of the assay: SRB anti-proliferative assay, MCF-7. Format: cell-based, Human. Here is the method: as §1
The subject of assay [7] is Colo-205. As to the kind of experiment: SRB anti-proliferative assay, Colo-205. Format: cell-based, Human. Here is the method: as §1
Assay [8] relates to Hela. Nature of the assay: SRB anti-proliferative assay, Hela. In kind it is cell-based, Human. Particulars: read-out: GI50 Hela. The procedure: as §1
For assay [9], the system named is K562. Nature of the assay: SRB anti-proliferative assay, K562. Format: cell-based, Human. The note with it: Homo sapiens, K562, read-out: GI50 K562. Here is the method:
as §1

Assay [10] concerns Hop-62. Nature of the assay: SRB anti-proliferative assay, Hop-62. Format: cell-based, Human. The note with it: Homo sapiens, HOP-62, read-out: GI50 Hop-62. Here is the method: as §1
Assay [11] concerns MAIPA-CA-2. Nature of the assay: SRB anti-proliferative assay, MAIPA-CA-2. Format: cell-based, Human. Particulars: Homo sapiens, read-out: GI50 MAIPA-CA-2. Here is the method:
as §1

Assay [12] concerns SK-OV-3. Nature of the assay: SRB anti-proliferative assay, SK-OV-3. Format: cell-based, Human. Particulars: Homo sapiens, SK-OV-3, read-out: GI50 SK-OV-3. The procedure:
as §1

[13] abbreviates: Homo sapiens, DU-145, read-out: GI50 DU-145.
[14] abbreviates: Homo sapiens, MCF7, read-out: GI50 MCF-7.
Setting [15] is: Homo sapiens, COLO 205, read-out: GI50 Colo-205.

Read-outs that look alike come from different tables or passages of the source. A value given as a limit tells only on which side of the number the result lay.

Regarding `COc1cc(/C=C\c2ccc(OC)c(N)c2)cc(OC)c1` [Compound S3, (Z)-5-(3,5-dimethoxystyryl)-2-methoxyaniline], the “inhibits tubulin polymerization, compared with CA-4” value in [1] is given as “stronger than CA-4 by five folds”.

`COc1ccc(/C=C\c2cc(OC)c(OC)c(OC)c2)cc1O` [CA-4, combretastatin A4, reference compound]: the GI50 in assay [2] (DU-145, Human prostate cancer, concentration of drug causing 50% inhibition of cell growth, read-out: GI50 DU-145) is 0.046 µM; in assay [3], 0.031 µM; in assay [4], 31.6 µM; in assay [5] it was 0.15 µM; in [6] (MCF7, Human breast cancer, concentration of drug causing 50% inhibition of cell growth, read-out: GI50 MCF-7), 0.033 µM; in assay [7] (COLO 205, Human colon cancer, concentration of drug causing 50% inhibition of cell growth, read-out: GI50 Colo-205), 0.025 µM. For the same compound, the GI50 in assay [8] (Human cervical cancer, concentration of drug causing 50% inhibition of cell growth) was determined as 0.008 µM.

For the compound `COc1ccc(C=Cc2cc(OC)c(OC)c(OC)c2)c(NC(=O)/C=C/c2ccc(F)c(F)c2)c1O` [Compound 20aa, (E)-3-(3,4-Difluorophenyl)-N-(2-hydroxy-3-methoxy-6-(3,4,5-trimethoxystyryl)phenyl)acrylamide], the GI50 in assay [2] (setting [13]) amounted to 0.045 µM; in assay [9] it was 0.099 µM; in assay [10] it was 43.6 µM; in [6] (setting [14]) it was 0.031 µM; in assay [7] (setting [15]), 74.9 µM; in [11], 74 µM. Further, the results for the GI50 in assay [8] (Homo sapiens) and in assay [12] were 29.2 µM and 29.8 µM, respectively.

For `C#CCOc1cccc(/C=C/C(=O)Nc2c(C=Cc3cc(OC)c(OC)c(OC)c3)ccc(OC)c2O)c1` [Compound 20h, (E)-N-(2-Hydroxy-3-methoxy-6-(3,4,5-trimethoxystyryl)phenyl)-3-(3-(prop-2-ynyloxy)phenyl)acrylamide], the GI50 in assay [2] (setting [13]) was 96.4 µM; in [9] it was more than 100 µM; in assay [10] it was more than 100 µM; in assay [6] (setting [14]), 11.6 µM; in assay [7] (setting [15]), more than 100 µM; in assay [11], more than 100 µM. Moreover, the GI50 in assay [8] (Homo sapiens) and in assay [12] was more than 100 µM in each case.
